Measurements as given in patent US6355669B1, “Retinoic acid agonists as preventive and therapeutic agents for nephritis” (Eisai Co., Ltd., priority 1997, dated 2002).

Columns and labels:
[1] = molecular target: T1, human RARα (Homo sapiens, UniProt P10276); assay: RAR binding assay (inhibition of 3H-all-trans-retinoic acid binding), RAR-α; set-up: expressed in transfected cells; conditions: nuclear extract of BHK cells expressing human RARα, read-out: Receptor binding assay IC50 (nM) RAR-α
T1 sequence (P10276 1-462): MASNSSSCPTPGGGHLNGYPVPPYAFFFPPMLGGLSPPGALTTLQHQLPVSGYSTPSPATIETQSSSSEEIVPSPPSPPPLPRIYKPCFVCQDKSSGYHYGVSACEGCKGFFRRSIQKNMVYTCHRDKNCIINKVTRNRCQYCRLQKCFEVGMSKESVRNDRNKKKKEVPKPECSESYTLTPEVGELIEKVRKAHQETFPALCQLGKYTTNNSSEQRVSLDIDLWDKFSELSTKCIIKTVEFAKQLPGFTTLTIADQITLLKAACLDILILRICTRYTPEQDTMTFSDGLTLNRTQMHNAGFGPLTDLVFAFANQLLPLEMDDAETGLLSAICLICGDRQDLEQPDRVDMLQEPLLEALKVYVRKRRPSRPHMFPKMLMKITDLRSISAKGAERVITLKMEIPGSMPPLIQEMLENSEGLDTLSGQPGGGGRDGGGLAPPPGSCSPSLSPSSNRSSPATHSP
Protocol: (§1) Cells constantly expressing RARα, β and γ proteins were prepared by introducing human RARα, β and γ genes into BHK (baby hamster kidney) cells. A nuclear fraction of these cells was used to construct an experimental system for measuring the specific binding of all-trans-retinoic acid to RAR, and in this experimental system, the ability of each test compound to bind to […] was examined by measuring the degree of inhibition of binding. Further, the ability of each test compound to bind to each receptor subtype was compared to determine the selectivity of the compound for RAR subtype.
(§2) 5×10^8 BHK cells having the RAR gene introduced into them were suspended in 15 ml solution A (5 mM sodium phosphate (pH 7.4), 10 mM monothioglycerol, 10% (v/v) glycerol, 1 mM phenyl methyl sulfonyl fluoride (PMSF), 10 μg/ml aprotinin, 25 μg/ml leupeptin), then homogenized therein and centrifuged, and the supernatant was removed. The resulting pellet was suspended in 15 ml buffer B (10 mM Tris-HCl (pH 8.5), 10 mM monothioglycerol, 10% (v/v) glycerol, 1 mM PMSF, 10 μg/ml aprotinin, 25 μg/ml leupeptin, 0.4 M potassium chloride), then left at 4° C. for 1 hour and ultracentrifuged at 100,000×g, 4° C. for 1 hour. The resulting supernatant was frozen and stored as a nuclear extract fraction at −80° C. until use (Methods in Enzymology, 189, 248).
(§3) 180 μl of the extract fraction and 10 μl diluted solution of all-trans-retinoic acid or a test compound were added to each well on a 96-well plate made of polypropylene, and further 10 μl of 10 nM ^3H-all-trans-retinoic acid was added thereto and left at 4° C. for 16 hours. 3% charcoal-0.3% dextran solution was added to the reaction solution and centrifuged whereby free ^3H-all-trans-retinoic acid was separated, and the count in the supernatant was determined by a scintillation counter. The count when a 500-fold excess of non-labeled all-trans-retinoic acid was added was subtracted as unspecific binding from the value obtained, to determine the amount of each compound binding specifically to RAR.
(§4) The concentration (IC50) of each compound at which the binding of ^3H-all-trans-retinoic acid was inhibited by 50% was determined and the results are shown in Tables 3-1 and 3-2.

[2] = molecular target: T2, human RARγ (Homo sapiens, UniProt P13631); assay: RAR binding assay (inhibition of 3H-all-trans-retinoic acid binding), RAR-γ; set-up: expressed in transfected cells; conditions: nuclear extract of BHK cells expressing human RARγ, read-out: Receptor binding assay IC50 (nM) RAR-γ
T2 sequence (P13631 1-454): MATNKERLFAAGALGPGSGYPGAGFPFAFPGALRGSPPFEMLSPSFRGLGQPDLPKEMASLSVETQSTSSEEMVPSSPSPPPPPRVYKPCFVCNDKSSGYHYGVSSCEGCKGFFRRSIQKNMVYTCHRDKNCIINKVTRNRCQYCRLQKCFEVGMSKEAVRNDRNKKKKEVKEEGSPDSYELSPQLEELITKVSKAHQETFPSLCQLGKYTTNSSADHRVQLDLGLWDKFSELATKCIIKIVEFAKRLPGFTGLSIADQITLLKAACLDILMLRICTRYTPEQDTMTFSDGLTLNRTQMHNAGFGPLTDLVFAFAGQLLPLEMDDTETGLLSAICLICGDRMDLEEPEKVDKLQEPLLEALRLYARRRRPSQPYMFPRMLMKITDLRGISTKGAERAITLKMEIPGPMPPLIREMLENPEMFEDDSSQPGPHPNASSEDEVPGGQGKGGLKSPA
Protocol: as §1, §2, §3, §4

[3] = molecular target: T3, human RARβ (Homo sapiens, UniProt P10826); assay: RAR binding assay (inhibition of 3H-all-trans-retinoic acid binding), RAR-β; set-up: expressed in transfected cells; conditions: nuclear extract of BHK cells expressing human RARβ, read-out: Receptor binding assay IC50 (nM) RAR-β
T3 sequence (P10826 1-455): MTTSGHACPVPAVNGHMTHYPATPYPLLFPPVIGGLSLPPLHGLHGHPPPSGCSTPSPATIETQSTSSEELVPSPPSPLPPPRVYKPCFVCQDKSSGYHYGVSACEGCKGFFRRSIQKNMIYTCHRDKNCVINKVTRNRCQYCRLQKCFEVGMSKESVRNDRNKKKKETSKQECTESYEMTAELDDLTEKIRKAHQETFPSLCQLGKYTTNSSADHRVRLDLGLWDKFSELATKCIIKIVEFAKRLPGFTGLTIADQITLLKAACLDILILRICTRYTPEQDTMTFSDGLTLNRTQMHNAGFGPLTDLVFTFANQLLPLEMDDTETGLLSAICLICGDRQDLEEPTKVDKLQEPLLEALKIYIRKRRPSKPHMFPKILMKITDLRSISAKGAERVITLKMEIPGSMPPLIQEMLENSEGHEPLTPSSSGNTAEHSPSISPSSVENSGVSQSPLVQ
Protocol: as §1, §2, §3, §4

[4] = test system: accelerated Masugi nephritis; assay: Rat model with accelerated Masugi nephritis (proteins excreted in urine for 24 hours); format: in vivo, Sprague-Dawley strain rats; conditions: oral once every day, compared with the control group
Protocol: Sprague-Dawley strain rats were immunized by subcutaneously administering rabbit γ-globulin in a dose of 4 mg/rat along with Freund's complete adjuvant into the bottoms of their both hind legs. On the 5th day after the rats were immunized, 1 ml of anti-rat glomerular basement membrane rabbit serum diluted 6- or 8-fold was administered via tail veins into the animals. On the 8th day, the rats were forced to be orally administered 8 ml sterilized water and then placed in a metabolism cage, and their urine was collected for 24 hours during which the animals were allowed neither food nor water. As the indicator of the model with accelerated Masugi nephritis, the amount of proteins excreted in urine for 24 hours was used.
The medium was administered into the control group.

[5] = test system: anti-dinitrophenyl (DNP) IgG2a antibody titer; assay: Mouse model producing antibody (anti-DNP IgG2a antibody titer in serum, ELISA); format: in vivo, BALB/c mice; conditions: for effect on anti-DNP IgG2a: dose 0.1 mg/kg oral once every day for 10 days, 10th day after immunization
Protocol: BALB/c mice were immunized by administering dinitrophenylated keyhole limpet hemocyanin (DNP-KLH) as antigen intraperitoneally into them in a dose of 100 μg/mouse along with Freund's complete adjuvant. On the 10th day after the day on which the mice were immunized, blood was collected from the orbital venous plexus of the animals under anesthesia with ether and examined for anti-dintrophenyl (DNP) IgG2a antibody titer in serum by the ELISA method.
The test compounds B, E, F, G and H were suspended in 0.5% aqueous methyl cellulose solution and orally administered into the animals once every day for 10 days from the day when the animals were immunized with DNP-KLH. The medium was administered into the control group.

| Compound | IC50 [1] | IC50 [2] | IC50 [3] | also measured |
| --- | --- | --- | --- | --- |
| O=C(O)c1ccc(-c2ccc(-c3cc4c(Cl)ccc(Cl)c4o3)[nH]2)cc1 | 1 nM | > 500 nM | – | – |
| O=C(O)c1ccc(-c2ccc(-c3cc4c(F)ccc(Cl)c4o3)[nH]2)cc1 | 3.8 nM | > 500 nM | > 500 nM | – |
| CC1(C)CCCc2ncc(-c3ccc(-c4ccc(C(=O)O)cc4)[nH]3)nc21 [Compound E, 4-{2-{5-[2-(8,8-dimethyl-5,6,7,8-tetrahydroquinoxalynyl)]pyrrolyl}}benzoic acid] | – | – | – | Degree of Inhibition of Albuminuria (%) ([4]; dose 1.0 mg/kg, 1 mg/kg): 85.8%; effect on anti-DNP IgG2a [5]: significantly inhibited |
| CC1CCCN(C)c2ccc(-c3ccc(-c4ccc(C(=O)O)cc4)[nH]3)cc21 (centres unmarked) [Compound F, 4-{2-{5-[7-(1,5-dimethyl-2,3,4,5-tetrahydro-1H-benzazepinyl)]pyrrolyl}}benzoic acid] | – | – | – | Degree of Inhibition of Albuminuria (%) ([4]; dose 1.0 mg/kg, 1 mg/kg): 71.1%; effect on anti-DNP IgG2a [5]: significantly inhibited |
| COCc1cc2c(cc1-c1ccc(-c3ccc(C(=O)O)cc3)[nH]1)C(C)(C)CCC2(C)C [Compound H, 4-{2-[5-(3-methoxymethyl-5,6,7,8-tetrahydro-5,5,8,8-tetramethylnaphthalene-2-yl)pyrrolyl}}benzoic acid] | – | – | – | Degree of Inhibition of Albuminuria (%) ([4]; dose 0.3 mg/kg, 0.3 mg/kg): 61.3%; effect on anti-DNP IgG2a [5]: showed a tendency to inhibit |
| C[Si](C)(C)c1cc(C(=O)Nc2ccc(C(=O)O)cc2)cc([Si](C)(C)C)c1 [Compound I, 4-{[(3,5-bistrimethylsilylphenyl)carbonyl]amino}benzoic acid] | – | – | – | Degree of Inhibition of Albuminuria (%) ([4]; dose 1.0 mg/kg, 1 mg/kg): 89.4% |
| CCn1nc(-c2ccc(-c3ccc(C(=O)O)cc3)[nH]2)cc1C(C)C [G] | – | – | – | effect on anti-DNP IgG2a [5]: significantly inhibited |
| Cc1ccc(C)c2oc(-c3ccc(-c4ccc(C(=O)O)cc4)[nH]3)cc12 [drawing 8] | 1.4 nM | > 500 nM | 340 nM | – |
| O=C(O)c1ccc(-c2ccc(-c3cc4c(C(F)(F)F)ccc(F)c4o3)[nH]2)cc1 [drawing 11] | 0.6 nM | 195 nM | 107 nM | – |
| Cc1ccc(C)c2c(F)c(-c3ccc(-c4ccc(C(=O)O)cc4)[nH]3)oc12 [drawing 12] | < 0.5 nM | 225 nM | 49 nM | – |
| CCc1ccc(C)c2cc(-c3ccc(-c4ccc(C(=O)O)cc4)[nH]3)oc12 [drawing 13] | < 0.5 nM | 270 nM | 160 nM | – |
| CC1(C)CCC(C)(C)c2nc(-c3ccc(-c4ccc(C(=O)O)cc4)[nH]3)cnc21 [drawing 14] | 0.6 nM | 140 nM | 56 nM | – |
| CC1CCCN(C)c2ncc(-c3ccc(-c4ccc(C(=O)O)cc4)[nH]3)nc21 (centres unmarked) [drawing 16] | 1 nM | 130 nM | 58 nM | – |
| COCc1cc2c(cc1-c1ccc(-c3ccc(C(=O)O)cc3)[nH]1)C(C)(C)CCC2(C)C [drawing 18] | 10 nM | 83 nM | 230 nM | – |
| C[Si](C)(C)c1cc(C(=O)Nc2ccc(C(=O)O)cc2)cc([Si](C)(C)C)c1 [drawing 19] | 6.4 nM | > 500 nM | > 500 nM | – |
| CCOC(=O)/C=C(C)/C=C/C=C(C)/C=C/c1c(C)cc(OC)c(C)c1C [etretinate, reference compound] | – | – | – | effect on production of anti-DNP antibody ([5]; 50 mg/kg, administered in the same manner as the test compounds): showed a tendency to inhibit |
